Laboratory results: patent publication US4629739A, “Substituted sulfonamidobenzamides and method of treating arrhythmias” (priority 1985, dated 1986)
“Also recorded” adds a separate entry of the source. Read-outs that look alike come from different tables or passages of the source.

Experiments:
cardiac tissue [1] = test: conduction and refractoriness in the cardiac tissue
[2] = test system: canine cardiac Purkinje fibers; test: action potential duration and upstroke by standard electrophysiological techniques in normal canine Purkinje fibres; format: cell-based
Source text: The action of the compounds of this invention is attributed to their ability to prolong the action potential of the cardiac tissue. Therefore, they are Class III antiarrhythmic agents within the Vaughan-Williams classification of antiarrhythmic agents. Such activity has been analyzed in several procedures, for instance, utilizing standard electrophysiological techniques to measure resting potential, action potential amplitude, duration, rate of rise and refractory periods of normal canine Purkinje fibres; and also utilizing re-entrant arrhythmias induced by programmed electrical stimulation in the conscious dog.

cardiovascular function [3] = test: cardiovascular / hemodynamic depression in vivo; details: doses 10 to 30 times the therapeutic dose (1-3 mg/kg)
[4] = test system: ganglionic and vagal transmission; test: effects on ganglionic and vagal transmission; format: in vivo; details: doses up to 10 mg/kg (i.e., 3-10 times the effective dose)
[5] = test system: re-entrant ventricular tachycardia; test: model of re-entrant ventricular tachycardia in dogs; format: in vivo, dog; details: anesthetized dogs; times more potent than acecainide
arrhythmia [6] = test: therapeutic dose; details: in vivo
local anesthetic action = details: doses up to 50-100 times the concentration which prolongs action potential duration by 20%
cardiovascular function [7] = details: cited from earlier work; for cardiovascular / hemodynamic depression in vivo: doses approximating the therapeutic dose; for depression of cardiac function: Class I drugs
man = details: cited from earlier work; for drug induced lupus erythematosis: in man
arrhythmia [8] = details: cited from earlier work
[9] = cited from earlier work
cardiac tissue [10] = details: cited from earlier work; for effect on conduction: known drugs
[11] = test system: ganglionic and vagal transmission; details: in vivo; literature; cited from earlier work
cardiac action potential = details: in vitro; Goodman & Gilman, 6th Ed., 1980, pg. 768; cited from earlier work

local anesthetic action (local anesthetic action) | Compound | conduction disturbances in the heart / effect on conduction (cardiac tissue [1]) | effect on action potential duration [2] | effect on action potential upstroke [2] | cardiovascular depression in vivo (cardiovascular function [3]) | effects on ganglionic or vagal transmission [4] | potency relative to acecainide in a model of re-entrant ventricular tachycardia [5] [times] | therapeutic dose (arrhythmia [6]) [mg/kg] | cardiovascular / hemodynamic depression in vivo (cardiovascular function [7]) | drug induced lupus erythematosis (man) | effect on conduction (cardiac tissue [10]) | depression of cardiac function (cardiovascular function [7]) | other results
No local anesthetic action | CS(=O)(=O)Nc1ccc(C(=O)NCCNCc2ccccc2)cc1.Cl [4-[(Methylsulfonyl)amino]-N-[2-((phenylmethyl)amino)ethyl]benzamide hydrochloride] | no conduction disturbances in the heart | prolong action potential duration | without slowing the action potential upstroke (it may be increased) | no evidence for cardiovascular depression | nor is there any evidence for effects on ganglionic or vagal transmission | 10 | 1 to 3 | – | – | – | – | –
No local anesthetic action | CCCCCCCNCCNC(=O)c1ccc(NS(C)(=O)=O)cc1.Cl [N-[2-(Heptylamino)ethyl]-4-[(methylsulfonyl)amino]benzamide hydrochloride] | no conduction disturbances in the heart | prolong action potential duration | without slowing the action potential upstroke (it may be increased) | no evidence for cardiovascular depression | nor is there any evidence for effects on ganglionic or vagal transmission | 10 | 1 to 3 | – | – | – | – | –
– | CCN(CC)CCNC(=O)c1ccc(NC(C)=O)cc1 [acecainide] | – | – | – | – | – | – | – | causes such depression at doses approximating the therapeutic dose | shown to cause lupus | little effect on conduction of the cardiac action potential | – | incidence of lupus relative to procainamide (man; versus procainamide): significantly lower than for procainamide; antiarrhythmic activity (arrhythmia [8]; reported): antiarrhythmic activity; mutagenic activity relative to procainamide (Ames Test) (bacteria (Ames Test)): one-half as active; deacetylation in man [9]: deacetylated in man; prolongation of refractoriness (cardiac tissue [10]; known drug): does prolong refractoriness
– | CC(C)N(CCC(C(N)=O)(c1ccccc1)c1ccccn1)C(C)C (stereo not shown) [disopyramide] | – | – | – | – | – | – | – | – | – | slowing conduction | depress cardiac function | –
– | CCN(CC)CCNC(=O)c1ccc(N)cc1 [procainamide] | – | – | – | – | – | – | – | causes cardiovascular depression; also recorded: causes such depression at doses approximating the therapeutic dose | drug induced lupus erythematosis | slowing conduction | depress cardiac function | ganglionic and vagal transmission [11]: blocks ganglionic and vagal transmission; therapeutic dose (arrhythmia [8]; in vivo, literature): 20 to 40 mg/kg; level showing significant mutagenic potential (Ames Test) (bacteria (Ames Test)): ≤ 0.2 mg/plate; effect on action potential duration (cardiac action potential): prolongs action potential duration; effect on action potential upstroke (cardiac action potential): slows action potential upstroke
– | C=C[C@H]1C[N@@]2CC[C@H]1C[C@@H]2[C@@H](O)c1ccnc2ccc(OC)cc12 [quinidine] | – | – | – | – | – | – | – | – | – | slowing conduction | depress cardiac function | –
